In the assay the target is CDK2 (UniProt P24941). The experiment in a line: Enzyme Assay. The conditions noted are these: concentration not given here.

Take `CS(=O)(=O)c1ccccc1S(=O)(=O)Nc1ccc2[nH]nc(-c3cc4cccnc4[nH]3)c2c1`: the inhibition amounted to 0%. `CS(=O)(=O)c1ccccc1S(=O)(=O)Nc1ccc2[nH]nc(-c3cccc(Br)c3)c2c1`: the inhibition was 73%. Next, `CS(=O)(=O)c1ccccc1S(=O)(=O)Nc1ccc2[nH]nc(-c3cccc(Cl)c3Cl)c2c1`: 0%; `CS(=O)(=O)c1ccc(F)cc1S(=O)(=O)Nc1ccc2[nH]nc(-c3ccccc3)c2c1`: 87%. The result for `CS(=O)(=O)c1ccccc1S(=O)(=O)Nc1ccc2[nH]nc(-c3ccc4[nH]ccc4c3)c2c1` reads 73%. The result for `CS(=O)(=O)c1ccccc1S(=O)(=O)Nc1ccc2[nH]nc(-c3ccccc3Cl)c2c1` reads 52%. Turning to `O=S(=O)(Nc1ccc2[nH]nc(-c3ccc(O)cc3)c2c1)c1ccccc1`, the inhibition worked out at 89%.

The molecule `CS(=O)(=O)c1ccccc1S(=O)(=O)Nc1ccc2[nH]nc(/C=C/c3ccccc3)c2c1` returned an inhibition of 96%.

`CS(=O)(=O)c1ccccc1S(=O)(=O)Nc1ccc2[nH]nc(-c3ccc(F)c(Cl)c3)c2c1`: the inhibition was found to be 77%.

Consider `CS(=O)(=O)c1ccc(S(=O)(=O)Nc2ccc3[nH]nc(-c4ccccc4)c3c2)cc1`, for which the inhibition was 50%. Next, `COc1ccc2[nH]c(-c3n[nH]c4ccc(NS(=O)(=O)c5ccccc5S(C)(=O)=O)cc34)cc2c1`: 100%.

As to `CN(C)c1c(F)c(F)c(S(=O)(=O)Nc2ccc3[nH]nc(-c4cc5ccccc5[nH]4)c3c2)c(F)c1F`, the inhibition stood at 53%. Next, `COc1cccc(S(=O)(=O)Nc2ccc3[nH]nc(-c4ccccc4)c3c2)c1`: 68%; `Cc1cc(-c2n[nH]c3ccc(NS(=O)(=O)c4ccccc4S(C)(=O)=O)cc23)ccc1F`: 66%. Next, `Cc1cc2[nH]nc(-c3ccccc3)c2cc1NS(=O)(=O)c1ccccc1S(C)(=O)=O`: 62%. `CS(=O)(=O)c1ccccc1S(=O)(=O)Nc1ccc2[nH]nc(-c3cc(F)cc(F)c3)c2c1`: the inhibition came out at 74%.

The molecule `O=S(=O)(Nc1ccc2[nH]nc(-c3cc4ccccc4[nH]3)c2c1)c1ccccc1` showed an inhibition of 100%.

Consider `COc1ccc(-c2n[nH]c3ccc(NS(=O)(=O)c4ccccc4S(C)(=O)=O)cc23)c(OC)c1`, for which the inhibition stood at 27%. Next, `O=S(=O)(Nc1ccc2[nH]nc(-c3ccccc3)c2c1)c1ccc(F)cc1`: 56%; `O=S(=O)(Nc1ccc2[nH]nc(-c3ccccc3)c2c1)c1ccccc1OC(F)(F)F`: 74%. Next, `CS(=O)(=O)c1ccccc1S(=O)(=O)Nc1ccc2[nH]nc(-c3cccc(OCc4ccccc4)c3)c2c1`: 0%.

Regarding `Cc1ccccc1S(=O)(=O)Nc1ccc2[nH]nc(-c3ccccc3)c2c1`, the inhibition stood at 77%.

`CS(=O)(=O)c1ccccc1S(=O)(=O)Nc1ccc2[nH]nc(-c3ccc(OC(F)(F)F)cc3)c2c1`: the inhibition was found to be 61%. The result for `Nc1cc(Cl)cc(Cl)c1S(=O)(=O)Nc1ccc2[nH]nc(-c3ccccc3)c2c1` reads 58%; that for `CCOc1ccccc1-c1n[nH]c2ccc(NS(=O)(=O)c3ccccc3S(C)(=O)=O)cc12`, 31%. The result for `CS(=O)(=O)c1ccccc1S(=O)(=O)Nc1ccc2[nH]nc(-c3ccc[nH]3)c2c1` reads 99%; that for `O=S(=O)(Nc1ccc2[nH]nc(-c3ccccc3)c2c1)c1ccccc1`, 84%.

For `CS(=O)(=O)c1ccccc1S(=O)(=O)Nc1ccc2[nH]nc(-c3ccccc3-c3ccccc3)c2c1`, the inhibition is 27%.

The molecule `CC(=O)c1ccc(-c2n[nH]c3ccc(NS(=O)(=O)c4ccccc4S(C)(=O)=O)cc23)cc1` showed an inhibition of 56%.

`Cc1ccc(-c2n[nH]c3ccc(NS(=O)(=O)c4ccccc4S(C)(=O)=O)cc23)cc1` had an inhibition of 66%. Next, `CS(=O)(=O)c1ccccc1S(=O)(=O)Nc1ccc2[nH]nc(-c3ccc(OCc4ccccc4)c(F)c3)c2c1`: 41%; `CN(C)c1cccc2c(S(=O)(=O)Nc3cccc(-c4n[nH]c5ccc(NS(=O)(=O)c6ccccc6S(C)(=O)=O)cc45)c3)cccc12`: 20%; `COc1ccc(-c2n[nH]c3ccc(NS(=O)(=O)c4ccccc4S(C)(=O)=O)cc23)cc1OC`: 76%. Next, `CS(=O)(=O)c1ccccc1S(=O)(=O)Nc1ccc2[nH]nc(-c3cccc(O)c3)c2c1`: 73%; `O=[N+]([O-])c1ccc(S(=O)(=O)Nc2ccc3[nH]nc(-c4ccccc4)c3c2)cc1`: 50%. Next, `CCCNC(=O)c1n[nH]c2ccc(NS(=O)(=O)c3ccccc3S(C)(=O)=O)cc12`: 96%; `CS(=O)(=O)c1ccccc1S(=O)(=O)Nc1ccc2[nH]nc(-c3ccc4c(c3)OCO4)c2c1`: 76%.

As to `CS(=O)(=O)c1ccccc1S(=O)(=O)Nc1ccc2[nH]nc(NC(=O)c3ccccc3)c2c1`, the inhibition came out at 95%.

`CS(=O)(=O)c1ccccc1S(=O)(=O)Nc1ccc2[nH]nc(-c3ccc(-c4ccccc4)c(F)c3)c2c1`: the inhibition is 0%. `N#Cc1cccc(S(=O)(=O)Nc2ccc3[nH]nc(-c4ccccc4)c3c2)c1` registered an inhibition of 75%. Next, `CC(=O)Nc1n[nH]c2ccc(NS(=O)(=O)c3cc(F)cc(F)c3)cc12`: 82%.

As to `CS(=O)(=O)c1ccccc1S(=O)(=O)Nc1ccc2[nH]nc(-c3ccc(-c4ccccc4)cc3)c2c1`, the inhibition was determined as 41%. The molecule `CS(=O)(=O)c1ccccc1S(=O)(=O)Nc1ccc2[nH]nc(-c3ccncc3)c2c1` registered an inhibition of 87%. The result for `O=S(=O)(Nc1ccc2[nH]nc(-c3cc4ccccc4[nH]3)c2c1)c1cccc(F)c1` reads 99%; that for `O=S(=O)(Nc1ccc2[nH]nc(-c3ccccc3)c2c1)c1cc(F)cc(F)c1`, 68%; that for `CN(C)c1ccc(-c2n[nH]c3ccc(NS(=O)(=O)c4ccccc4S(C)(=O)=O)cc23)cc1`, 81%. The result for `O=[N+]([O-])c1ccccc1S(=O)(=O)Nc1ccc2[nH]nc(-c3ccccc3)c2c1` reads 81%; that for `Cc1ccc(-c2n[nH]c3ccc(NS(=O)(=O)c4ccccc4S(C)(=O)=O)cc23)cc1F`, 70%; that for `C[Si](C)(C)C#Cc1cccc(-c2n[nH]c3ccc(NS(=O)(=O)c4ccccc4S(C)(=O)=O)cc23)c1`, 7%.

Regarding `CCOc1cccc(-c2n[nH]c3ccc(NS(=O)(=O)c4ccccc4S(C)(=O)=O)cc23)c1`, the inhibition was determined as 60%. Next, `Cc1cccc(-c2n[nH]c3ccc(NS(=O)(=O)c4ccccc4S(C)(=O)=O)cc23)c1`: 71%; `CS(=O)(=O)c1ccccc1S(=O)(=O)Nc1ccc2[nH]nc(-c3ccc(Oc4ccccc4)cc3)c2c1`: 20%; `Cc1cc(C)c(S(=O)(=O)Nc2ccc3[nH]nc(-c4ccccc4)c3c2)c(C)c1`: 79%. Consider `CS(=O)(=O)c1ccccc1S(=O)(=O)Nc1ccc2[nH]nc(-c3cccc([N+](=O)[O-])c3)c2c1`, for which the inhibition came out at 82%. Next, `CS(=O)(=O)c1ccccc1S(=O)(=O)Nc1ccc2[nH]nc(Sc3ccccc3)c2c1`: 82%; `CS(=O)(=O)c1ccccc1S(=O)(=O)Nc1ccc2[nH]nc(-c3ccc(C(=O)O)cc3)c2c1`: 61%. Next, `CCOc1ccc(-c2n[nH]c3ccc(NS(=O)(=O)c4ccccc4S(C)(=O)=O)cc23)cc1`: 74%; `CCSc1ccc(-c2n[nH]c3ccc(NS(=O)(=O)c4ccccc4S(C)(=O)=O)cc23)cc1`: 77%. Next, `CS(=O)(=O)c1ccccc1S(=O)(=O)Nc1ccc2[nH]nc(Nc3ccccc3)c2c1`: 100%; `O=S(=O)(Nc1ccc2[nH]nc(-c3ccccc3)c2c1)c1cccc2nonc12`: 67%; `CCc1ccc(-c2n[nH]c3ccc(NS(=O)(=O)c4ccccc4S(C)(=O)=O)cc23)cc1`: 65%. `CC(C)c1cc(C(C)C)c(S(=O)(=O)Nc2ccc3[nH]nc(-c4ccccc4)c3c2)c(C(C)C)c1` gave an inhibition of 50%. Next, `CS(=O)(=O)c1ccccc1S(=O)(=O)Nc1ccc2[nH]nc(-c3ccc(Cl)cc3)c2c1`: 96%; `CS(=O)(=O)c1ccccc1S(=O)(=O)Nc1ccc2[nH]nc(-c3cccc(OC(F)(F)F)c3)c2c1`: 60%.

`Nc1n[nH]c2ccc(NS(=O)(=O)c3cc(F)cc(F)c3)cc12` displayed an inhibition of 0%. `CCCCS(=O)(=O)Nc1ccc2[nH]nc(-c3ccccc3)c2c1` registered an inhibition of 30%. Next, `CS(=O)(=O)c1ccccc1S(=O)(=O)Nc1ccc2[nH]nc(-c3ccc(C#N)cc3)c2c1`: 86%; `Cc1ccc(-c2n[nH]c3ccc(NS(=O)(=O)c4ccccc4S(C)(=O)=O)cc23)cc1C`: 75%.

For the molecule `O=S(=O)(Nc1ccc2[nH]nc(-c3ccccc3)c2c1)c1ccc(Cl)s1`, the inhibition was determined as 65%. The result for `CC(C)(C)c1ccc(-c2n[nH]c3ccc(NS(=O)(=O)c4ccccc4S(C)(=O)=O)cc23)cc1` reads 0%; that for `CS(=O)(=O)c1ccccc1S(=O)(=O)Nc1ccc2[nH]nc(-c3ccc(Cl)s3)c2c1`, 55%. Turning to `CS(=O)(=O)c1ccccc1S(=O)(=O)Nc1ccc2[nH]nc(N)c2c1`, the inhibition worked out at 72%. The result for `CS(=O)(=O)c1ccccc1S(=O)(=O)Nc1ccc2[nH]nc(-c3ccccc3N)c2c1` reads 50%; that for `Cc1cc(C)cc(-c2n[nH]c3ccc(NS(=O)(=O)c4ccccc4S(C)(=O)=O)cc23)c1`, 72%; that for `CS(=O)(=O)c1ccccc1S(=O)(=O)Nc1ccc2[nH]nc(-c3ccccc3F)c2c1`, 61%.

The molecule `CS(=O)(=O)c1ccccc1S(=O)(=O)Nc1ccc2[nH]nc(-c3ccc(Cl)cc3Cl)c2c1` showed an inhibition of 23%.

The molecule `CS(=O)(=O)c1ccccc1S(=O)(=O)Nc1ccc2[nH]nc(-c3ccc(Cl)c(Cl)c3)c2c1` returned an inhibition of 66%.

For `COc1ccccc1-c1n[nH]c2ccc(NS(=O)(=O)c3ccccc3S(C)(=O)=O)cc12`, the inhibition came out at 50%. Next, `CS(=O)(=O)c1ccccc1S(=O)(=O)Nc1ccc2[nH]nc(-c3ccc(Br)cc3)c2c1`: 75%.

The molecule `CS(=O)(=O)c1ccccc1S(=O)(=O)Nc1ccc2[nH]nc(-c3ccc(CO)cc3)c2c1` registered an inhibition of 73%.

The values are drawn from the Kinase Knowledgebase extract (Sharma et al. 2016).
